Experimental data from EP0335637A2, “Nerve growth factor peptides” (THE REGENTS OF THE UNIVERSITY OF CALIFORNIA, priority 1988, dated 1989).
Where a SMILES comes first, the peptide text is derived from it.

Columns and labels:
[1] = Resistance to proteolysis during cell culture (HPLC recovery); assay type: in vitro ADME; settings: after 24 hr in culture; 2.0 µmole/ml peptide, 100 pg/ml NGF and cells
Method: The resistance of peptide C5 to proteolytic cleavage during cell culture was assessed. Quadruplicate wells were prepared each containing 2.Oµ mole/ml of peptide in culture medium, 100 pg/ml NGF and cells as described above. After 24 hr in culture, 320 ul (4 wells x 80 ul) of culture medium were collected. Fresh culture medium containing 2.0 µmole/ml of peptide was also prepared. Both samples of peptide-containing medium were filtered through a Centricon membrane (Amicon, Bedford) with a molecular weight cutoff of 10,000. 250 µl of filtrate was loaded onto a C18 uBondapak analytic HPLC column and run under the same conditions described above for peptide purification. The quantity of peptides in fresh compared to post-culture medium was determined by integration of their absorbance peaks. After 24 hr in culture, more than 80-85% of the initial quantity of peptide C5 was recovered.

[2] = tested on: embryologic day 10 dorsal root ganglia neurons; test: NGF-independent neurite outgrowth in response to CNTF (nonspecific toxicity check); assay type: cell-based, chick; settings: C5 up to 2.6p moles/ml (Figure 3)
Method: Potential nonspecific toxicity of peptide C5 (KGKE) was investigated with embryologic day 10 dorsal root ganglia neurons which also extend neurites in the presence of ciliary neurotrophic factor (CNTF). The effect of peptide C5 on NGF-independent neurite outgrowth was assessed.

## NCCCC[C@H](NC(=O)CNC(=O)[C@@H](N)CCCCN)C(=O)N[C@@H](CCC(=O)O)C(N)=O [C5, KGKE] (H-KGKE-NH2)
[1]
  initial quantity of peptide recovered: 80-85%
[2]
  effect on number of neurons bearing neurites in response to CNTF: no detectable effect
